Drawing on PubChem BioAssay AID435010 (Broad Institute, 2010), this text covers EC50 for 3 compounds.

pEC50: −log10 of the molar value. Results filed as inconclusive are left out. Calls of active or inactive are those of the source. The rule behind the calls is not given here. Bounds are passed on as bounds.

The target in this test is Protein RecA (Mycobacterium tuberculosis (strain ATCC 25618 / H37Rv)) (UniProt P9WHJ3). As to the kind of experiment: RecA intein splicing inhibitors, Mycobacterium tuberculosis, cell free fluorescence, confirmatory dose response (AID 435010).
Chain of Protein RecA (Mycobacterium tuberculosis (strain ATCC 25618 / H37Rv)) (P9WHJ3 whole entry, looked up): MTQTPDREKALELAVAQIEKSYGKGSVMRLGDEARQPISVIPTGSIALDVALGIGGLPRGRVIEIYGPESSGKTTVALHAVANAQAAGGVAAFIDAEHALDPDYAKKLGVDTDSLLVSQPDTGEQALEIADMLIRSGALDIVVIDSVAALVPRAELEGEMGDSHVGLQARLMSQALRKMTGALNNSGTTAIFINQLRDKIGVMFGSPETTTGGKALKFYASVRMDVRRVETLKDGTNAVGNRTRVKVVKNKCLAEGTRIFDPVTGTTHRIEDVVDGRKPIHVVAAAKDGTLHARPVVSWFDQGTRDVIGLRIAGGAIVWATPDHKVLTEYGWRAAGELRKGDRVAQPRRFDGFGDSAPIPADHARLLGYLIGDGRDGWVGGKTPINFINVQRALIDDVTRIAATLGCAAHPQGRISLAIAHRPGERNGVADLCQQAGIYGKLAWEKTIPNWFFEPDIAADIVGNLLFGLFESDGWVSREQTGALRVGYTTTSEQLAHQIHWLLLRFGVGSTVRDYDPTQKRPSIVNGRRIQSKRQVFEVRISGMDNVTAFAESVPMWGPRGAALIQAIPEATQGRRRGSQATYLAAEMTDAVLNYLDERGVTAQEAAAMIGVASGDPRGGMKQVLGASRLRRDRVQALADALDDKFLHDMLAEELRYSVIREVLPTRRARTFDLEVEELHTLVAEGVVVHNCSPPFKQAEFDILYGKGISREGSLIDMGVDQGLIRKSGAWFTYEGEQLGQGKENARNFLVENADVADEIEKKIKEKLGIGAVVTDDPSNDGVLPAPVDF
`N[C@@H]1CCCC[C@H]1N.O=C(O)C(=O)O.[Pt]`: the pEC50 was 4.49.

Regarding `CC1=NN(Cc2ccccc2)C(=O)/C1=C\c1ccc(N(C)C)cc1`, the EC50 is > 38 µM (inactive).

Take `O=C(CCCN1C(=O)/C(=C/c2ccccc2)SC1=S)Nc1ccc(O)cc1`: the EC50 was > 38 µM (inactive).

As a reminder, the pEC50 is the EC50 on a negative log10 scale, so that one unit is a factor of ten. The EC50 is the concentration that produces a half-maximal response.
